From patent US20240166649A1, “DIHYDROPYRIMIDINE COMPOUND, PREPARATION METHOD THEREFOR AND APPLICATION THEREOF” (Shanghai Visonpharma Co., Ltd., priority 2021, published 2024)
Where two headings read alike, the source gives them in different places.

Tests used:
[1] = tested on: HBV (hepatitis B virus) in HepG2.2.15 cells; assay: Cell-based anti-viral activity assay (HBV DNA in supernatant by quantitative PCR); conditions: 120 h, anti-HBV activity, HepG2.2.15 cells, 5 days, read-out: EC50 (HepG2.2.15)
Method in brief: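 HepG2.2.15 cells (stably carrying HBV genome) treated with 3.16-fold compound dilutions, final 1% DMSO, for 5 days at 37 °C. Supernatant HBV DNA quantified by qPCR against a standard curve; % inhibition normalised to DMSO and high-concentration reference compound wells.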

[2] = Cytotoxicity assay (CellTiter Glo); format: cell-based; conditions: human; HepG2.2.15 cells, five days post treatment
Experimental: The Invention Determined Cytotoxicity of the Compounds Against HepG2.2.15 Cells (Table 2)
HepG2.2.15 cells were seeded into 96-well plates (8000 cells per well) and cell viability was measured by the addition of 60 μL of CellTiter Glo reagent (Promega) five days post treatment with the compounds. Cell plates with CellTiter Glo added were shaken on a plate shaker for 20 min and then the chemiluminescence signal was stabilized at room temperature for 10 min. Chemiluminescence values were read using a microplate reader (Bio-TeK SYNERGY NEO2).
The concentration corresponding to 50% cytotoxicity (CC50) was fitted by graphpad prism software. The cytotoxicity was calculated by the formula: % Cytotoxicity=100−(chemiluminescence value of sample Well −average chemiluminescence value of blank medium column)/(average chemiluminescence value of DMSO column −average chemiluminescence value of blank medium column)*100

[3] = Pharmacokinetics (PK) evaluation in mice; format: in vivo; conditions: ICR mice, po 10 mg/kg; for Kp at 0.5 h / Kp at 1 h / Kp at 3 h / Kp at 5 h / concentration at 0.5 h / concentration at 1 h / concentration at 3 h / concentration at 5 h / AUC(0-t) / Cmax: mouse; for Kp at 0.5 h / Kp at 1 h / Kp at 3 h / Kp at 5 h: liver/plasma, read-out: Liver/Plasma ratio
Experimental: Pharmacokinetics (PK) Evaluation in Mice Test compounds were administered to ICR mice by gavage (po). The po dose was 10 mg/kg, and the vehicle formulation was 10% DMSO+40% PEG400+50% Saline (0.9% saline). Animals were fasted overnight (10-14 h) before administration and fed 4 h after administration. Blood was collected into heparin sodium anticoagulated tubes at multiple time points (0.5, 1, 3, 5 hours) after administration. Mice were euthanized with CO2 and livers were collected at multiple time points (0.5, 1, 3,5 h). The drug concentrations in plasma and liver were analyzed by LC-MS/MS method. Phenix WinNonlin was used to calculate the pharmacokinetic parameters.

[4] = liver, read-out: Liver drug conc.
[5] = plasma, read-out: Plasm drug conc.

Structure (SMILES)	EC50 [1] [nM]	CC50 at 5 days [2] [nM]	Liver AUC(0→t) [3] [ng·h/g]	Liver Cmax [3] [ng/g]	Kp at 0.5 h [3]	Kp at 1 h [3]	Kp at 3 h [3]	Kp at 5 h [3]	concentration at 0.5 h [3, 4] [ng/g]	concentration at 1 h [3, 4] [ng/g]	concentration at 3 h [3, 4] [ng/g]	concentration at 5 h [3, 4] [ng/g]	AUC(0-t) ([3]; plasma) [ng·h/mL]	Cmax ([3]; plasma) [ng/mL]	concentration at 0.5 h [3, 5] [ng/mL]	concentration at 1 h [3, 5] [ng/mL]	concentration at 3 h [3, 5] [ng/mL]	concentration at 5 h [3, 5] [ng/mL]
CCOC(=O)C1=C(CN2CCN3C(=O)N(C45CC(CC(=O)O)(C4)C5)C[C@@H]3C2)NC(c2nccs2)=N[C@H]1c1cccc(F)c1C [Compound 22, 2-(3-((S)-7-(((S)-5-(Ethoxycarbonyl)-6-(3-Fluoro-2-Methylphenyl)-2-(Thiazol-2-Yl)-3,6-Dihydropyrimidin-4-Yl)Methyl)-3-Oxohexahydroimidazo[1,5-a]Pyrazin-2(3H)-Yl)Bicyclo[1.1.1]Pentan-1-Yl)Acetic Acid]	7	> 50000	231116	102141	120	115	137	297	102000	94800	24700	12200	1860	849	849	826	180	41
CCOC(=O)C1=C(CN2CCN3C(=O)N(C45CCC(CC(=O)O)(C4)C5)C[C@@H]3C2)NC(c2nccs2)=N[C@H]1c1cccc(F)c1C [Compound 58, 2-(4-((S)-7-(((S)-5-(Ethoxycarbonyl)-6-(3-Fluoro-2-Methylphenyl)-2-(Thiazol-2-Yl)-3,6-Dihydropyrimidin-4-Yl)Methyl)-3-Oxohexahydroimidazo[1,5-a]Pyrazin-2(3H)-Yl)Bicyclo[2.1.1]Hexan-1-Yl)Acetic Acid]	6	> 50000	175730	62519	31	40	57	44	62500	61300	26800	14200	4210	2030	2030	1540	470	324
